Experimental data reported in PubChem BioAssay AID248 (DTP/NCI, 2004).
Toxic doses and inconclusive results are not listed. No stated cut-off is given here; in the data, active means T/C of 150% or more; inactive means T/C below 125%.

Test system: L1210 leukemia ip in BDF1 mice, survival T/C
Test: NCI In Vivo Anticancer Drug Screen. Data for tumor model L1210 Leukemia (intraperitoneal) in B6D2F1 (BDF1) mice
Settings: endpoint: mean survival time, higher = longer survival
Outline: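 Transplanted-tumor mice were given test agent; controls received vehicle only. Survival readings from the two groups were divided (treated over control).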

[1] = dose: 75.0 mg/kg/injection, schedule: Q01DX009 (ip), vehicle: Klucel (hydroxypropylcellulose) (HPC)
[2] = dose: 50.0 mg/kg/injection, schedule: Q01DX001 (ip), vehicle: carboxymethylcellulose (CMC)
[3] = dose: 100.0 mg/kg/injection, schedule: Q01DX001 (ip), vehicle: carboxymethylcellulose (CMC)
[4] = dose: 200.0 mg/kg/injection, schedule: Q01DX001 (ip), vehicle: carboxymethylcellulose (CMC)
[5] = dose: 400.0 mg/kg/injection, schedule: Q01DX001 (ip), vehicle: carboxymethylcellulose (CMC)
[6] = dose: 100.0 mg/kg/injection, schedule: Q01DX001 (ip), vehicle: saline
[7] = dose: 200.0 mg/kg/injection, schedule: Q01DX001 (ip), vehicle: saline
[8] = dose: 100.0 mg/kg/injection, schedule: Q01DX009 (ip), vehicle: saline with Tween-80
[9] = dose: 200.0 mg/kg/injection, schedule: Q01DX009 (ip), vehicle: saline with Tween-80
[10] = dose: 400.0 mg/kg/injection, schedule: Q01DX009 (ip), vehicle: saline with Tween-80
[11] = dose: 100.0 mg/kg/injection, schedule: Q04DX003 (ip), vehicle: saline with Tween-80
[12] = dose: 200.0 mg/kg/injection, schedule: Q04DX003 (ip), vehicle: saline with Tween-80
[13] = dose: 100.0 mg/kg/injection, schedule: Q01DX009 (ip), vehicle: saline
[14] = dose: 200.0 mg/kg/injection, schedule: Q01DX009 (ip), vehicle: saline
[15] = dose: 100.0 mg/kg/injection, schedule: Q04DX002 (ip), vehicle: Klucel (hydroxypropylcellulose) (HPC)
[16] = dose: 200.0 mg/kg/injection, schedule: Q04DX002 (ip), vehicle: Klucel (hydroxypropylcellulose) (HPC)
[17] = dose: 400.0 mg/kg/injection, schedule: Q04DX002 (ip), vehicle: Klucel (hydroxypropylcellulose) (HPC)
[18] = dose: 400.0 mg/kg/injection, schedule: Q01DX001 (ip), vehicle: saline
[19] = dose: 100.0 mg/kg/injection, schedule: Q04DX003 (ip), vehicle: Klucel (hydroxypropylcellulose) (HPC)
[20] = dose: 200.0 mg/kg/injection, schedule: Q04DX003 (ip), vehicle: Klucel (hydroxypropylcellulose) (HPC)
[21] = dose: 400.0 mg/kg/injection, schedule: Q04DX003 (ip), vehicle: Klucel (hydroxypropylcellulose) (HPC)
[22] = dose: 400.0 mg/kg/injection, schedule: Q04DX003 (ip), vehicle: saline with Tween-80

Measured: T/C

CC1CC=CCC1COC(OCC1CC=CCC1C)C1CC=CCC1C (stereo not given)
inactive: dose: 100.0 mg/kg/injection, schedule: Q01DX009 (ip), vehicle: other 93 % of control | dose: 100.0 mg/kg/injection, schedule: Q04DX003 (ip), vehicle: other 100 % of control | dose: 200.0 mg/kg/injection, schedule: Q01DX009 (ip), vehicle: other 98 % of control | dose: 200.0 mg/kg/injection, schedule: Q04DX003 (ip), vehicle: other 98 % of control | dose: 400.0 mg/kg/injection, schedule: Q01DX009 (ip), vehicle: other 93 % of control | dose: 400.0 mg/kg/injection, schedule: Q04DX003 (ip), vehicle: other 96 % of control

O=C(COc1ccc(Cl)cc1C(=O)O)NCc1ccc([N+](=O)[O-])cc1
inactive: [1] 106 % of control | dose: 150.0 mg/kg/injection, schedule: Q01DX009 (ip), vehicle: Klucel (hydroxypropylcellulose) (HPC) 104 % of control | dose: 300.0 mg/kg/injection, schedule: Q01DX009 (ip), vehicle: Klucel (hydroxypropylcellulose) (HPC) 101 % of control

CCOC(=O)NC(NC(=O)OCC)c1ccc2c(c1)OCO2
inactive: [2] 105 % of control | [3] 96 % of control | [4] 91 % of control | [5] 94 % of control

CCn1c(C)nccc1=O
inactive: dose: 37.5 mg/kg/injection, schedule: Q01DX001 (ip), vehicle: saline 101 % of control | dose: 75.0 mg/kg/injection, schedule: Q01DX001 (ip), vehicle: saline 101 % of control | dose: 150.0 mg/kg/injection, schedule: Q01DX001 (ip), vehicle: saline 100 % of control

CCCC1(c2ccccc2)NC(=O)NC1=O (stereo not given)
inactive: [6] 96 % of control | [7] 102 % of control

Cc1c(C)c2c(c(C)c1O)CC(CO)CO2 (stereo not given)
inactive: dose: 100.0 mg/kg/injection, schedule: Q01DX001 (ip), vehicle: saline with Tween-80 92 % of control | dose: 200.0 mg/kg/injection, schedule: Q01DX001 (ip), vehicle: saline with Tween-80 101 % of control | dose: 400.0 mg/kg/injection, schedule: Q01DX001 (ip), vehicle: saline with Tween-80 87 % of control

CCN1C(=O)/C(=C\c2ccccc2)N=C1C
inactive: dose: 12.5 mg/kg/injection, schedule: Q01DX009 (ip), vehicle: DMSO 92 % of control | dose: 25.0 mg/kg/injection, schedule: Q01DX009 (ip), vehicle: DMSO 94 % of control | dose: 50.0 mg/kg/injection, schedule: Q01DX009 (ip), vehicle: DMSO 96 % of control

CC(C)C1=CC23CCC4C(C)(C(=O)O)CCCC4(C)C2CC13 (stereo not given)
inactive: [8] 88 % of control | [9] 90 % of control | [10] 91 % of control

C/C=C/Cn1cnc2c1c(=O)n(C)c(=O)n2C
inactive: [11] 95 % of control | [12] 95 % of control

O=C(Nc1ccc(Cl)c(Cl)c1)OCC#CCOC(=O)Nc1ccc(Cl)c(Cl)c1
inactive: [13] 99 % of control | [14] 91 % of control | dose: 400.0 mg/kg/injection, schedule: Q01DX009 (ip), vehicle: saline 88 % of control

COc1ccc(C(=O)c2ccc(Cl)s2)cc1
inactive: dose: 100.0 mg/kg/injection, schedule: Q04DX003 (ip), vehicle: gum acacia 96 % of control | dose: 200.0 mg/kg/injection, schedule: Q04DX003 (ip), vehicle: gum acacia 91 % of control | dose: 400.0 mg/kg/injection, schedule: Q04DX003 (ip), vehicle: gum acacia 89 % of control

O=C(O)c1cc(S(=O)(=O)O)cc(Br)c1O
inactive: [15] 95 % of control | [16] 103 % of control | [17] 89 % of control

COc1ccc(/C=C2\CN(CCC(=O)O)C(=O)C2=O)cc1
inactive: [6] 103 % of control | dose: 100.0 mg/kg/injection, schedule: Q04DX003 (ip), vehicle: saline 98 % of control | [7] 98 % of control | dose: 200.0 mg/kg/injection, schedule: Q04DX003 (ip), vehicle: saline 98 % of control | [18] 98 % of control | dose: 400.0 mg/kg/injection, schedule: Q04DX003 (ip), vehicle: saline 98 % of control

Cc1ccc(/C(C#N)=C2C=C(Br)/C(=N\O)C=C/2Cl)cc1
inactive: dose: 150.0 mg/kg/injection, schedule: Q01DX009 (ip), vehicle: saline with Tween-80 97 % of control | dose: 225.0 mg/kg/injection, schedule: Q01DX009 (ip), vehicle: saline with Tween-80 90 % of control

O/N=C1\C(Cl)C2CC1C1C=CCC12 (stereo not given)
inactive: dose: 25.0 mg/kg/injection, schedule: Q04DX003 (ip), vehicle: Klucel (hydroxypropylcellulose) (HPC) 91 % of control

Nc1ncc(-c2ccc(Br)cc2)s1
inactive: dose: 12.5 mg/kg/injection, schedule: Q01DX005 (ip), vehicle: Klucel (hydroxypropylcellulose) (HPC) 100 % of control | dose: 12.5 mg/kg/injection, schedule: Q01DX009 (ip), vehicle: Klucel (hydroxypropylcellulose) (HPC) 105 % of control | dose: 25.0 mg/kg/injection, schedule: Q01DX005 (ip), vehicle: Klucel (hydroxypropylcellulose) (HPC) 107 % of control | dose: 25.0 mg/kg/injection, schedule: Q01DX009 (ip), vehicle: Klucel (hydroxypropylcellulose) (HPC) 97 % of control | dose: 50.0 mg/kg/injection, schedule: Q01DX005 (ip), vehicle: Klucel (hydroxypropylcellulose) (HPC) 91 % of control | dose: 50.0 mg/kg/injection, schedule: Q01DX009 (ip), vehicle: Klucel (hydroxypropylcellulose) (HPC) 97 % of control | [1] 97 % of control | [15] 102 % of control | dose: 115.0 mg/kg/injection, schedule: Q01DX009 (ip), vehicle: Klucel (hydroxypropylcellulose) (HPC) 92 % of control | dose: 170.0 mg/kg/injection, schedule: Q01DX009 (ip), vehicle: Klucel (hydroxypropylcellulose) (HPC) 116 % of control | [16] 102 % of control | [17] 88 % of control

COC(=O)c1cc(O)c(C(=O)OC)s1
inactive: dose: 100.0 mg/kg/injection, schedule: Q01DX009 (ip), vehicle: Klucel (hydroxypropylcellulose) (HPC) 101 % of control | dose: 200.0 mg/kg/injection, schedule: Q01DX009 (ip), vehicle: Klucel (hydroxypropylcellulose) (HPC) 98 % of control | dose: 400.0 mg/kg/injection, schedule: Q01DX009 (ip), vehicle: Klucel (hydroxypropylcellulose) (HPC) 95 % of control

CCCCCCCCCCCC(=O)Nc1ccc(SSc2ccc(NC(=O)CCCCCCCCCCC)cc2)cc1
inactive: [2] 97 % of control | [3] 103 % of control | [4] 90 % of control | [5] 101 % of control

O=CO.[Pb]
inactive: [6] 90 % of control | [7] 92 % of control | [18] 98 % of control

O=C(/C=C(/NC1CCCCC1)c1ccccc1)c1ccccc1
inactive: [19] 98 % of control | [20] 102 % of control | [21] 100 % of control

COc1cc(/C=N/NC(=O)c2cccs2)cc(OC)c1OC
inactive: [8] 98 % of control | [9] 94 % of control | [10] 98 % of control

Cc1[nH]nc2c(NO)ncnc12
inactive: dose: 100.0 mg/kg/injection, schedule: Q01DX001 (ip), vehicle: other 98 % of control | dose: 200.0 mg/kg/injection, schedule: Q01DX001 (ip), vehicle: other 98 % of control | dose: 400.0 mg/kg/injection, schedule: Q01DX001 (ip), vehicle: other 102 % of control

O=C(CC(O)c1ccccc1)Nc1ccccn1 (stereo not given)
inactive: [6] 98 % of control | [7] 102 % of control | [18] 93 % of control

O=S(=O)(/N=C1C=C/C(=N\S(=O)(=O)c2ccccc2)c2ccccc2\1)c1ccccc1
inactive: [11] 88 % of control | [12] 90 % of control | [22] 93 % of control

O=C(Nc1ccc(Cl)c(Cl)c1)Nc1ccccc1O
inactive: [19] 100 % of control | [20] 102 % of control | [21] 100 % of control

Nc1cccc(OCCOc2cccc(S(=O)(=O)F)c2)c1
inactive: [6] 95 % of control | [7] 93 % of control | [18] 90 % of control

CCN(CC)Cc1cc(N)ccc1O
inactive: [13] 106 % of control | [14] 89 % of control

CC(=O)Nc1cc(Cl)cc(Cl)c1
inactive: [11] 100 % of control | [12] 102 % of control | [22] 96 % of control
